Assay: solvent given as SMILES

N#Cc1nn(-c2cccc(C(F)(F)F)c2)nc1N1CCCC1
emission maximum (in CC#N): 430 nm

CC(C)(C)c1ccc2oc3nc4oc5ccc(-n6c7ccc(C(C)(C)C)cc7c7cc(C(C)(C)C)ccc76)cc5c4cc3c2c1
emission maximum (in ClC(Cl)Cl): 444 nm

c1ccc(-n2c3ccccc3c3ccccc32)cc1
emission maximum (in CCO): 344 nm

CC1(C)c2ccccc2N(c2ccc(-c3nnc(-c4ccccc4)o3)cc2)c2ccccc21
emission maximum (in Cc1ccccc1): 450 nm
emission maximum (in c1ccc(-n2c(-c3c(-n4c5ccccc5c5ccccc54)cccc3-n3c4ccccc4c4ccccc43)nc3ccccc32)cc1): 455 nm

Oc1ccc2ccccc2c1/C=N/CC/N=C/c1c(O)ccc2ccccc12
emission maximum (in CC#N): 466 nm

O=c1c2cc(F)c(N3CCCCC3)cc2sc2cc(N3CCCCC3)c(F)cc12
emission maximum (in CCO): 487 nm

CCN(CC)c1ccc(/C=N/C(C#N)=C(C#N)\N=C\c2ccc(N(CC)CC)cc2O)c(O)c1
emission maximum (in CC#N): 606 nm

CC(C)(C)c1ccc(-c2c(-c3ccc(N(c4ccccc4)c4ccccc4)cc3)c(C#N)c(-c3ccc(N(c4ccccc4)c4ccccc4)cc3)c(-c3ccc(C(C)(C)C)cc3)c2-c2ccc(C(C)(C)C)cc2)cc1
emission maximum (in C1CCOC1): 443 nm

CC(C)(C)NC(=O)c1ccc(-c2ccccc2)c2ccc3c4ccccc4c4ccccc4c3c12
emission maximum (in ClCCl): 413 nm

CNc1ccc(/C=C/C(=O)OC)cc1
emission maximum (in O): 470 nm

Cc1cscc1-c1cc2c3cc(-c4cscc4C)c4nc(C(F)(F)C(F)(F)C(F)(F)F)nc5c(-c6cscc6C)cc(c6cc(-c7cscc7C)c7nc(C(F)(F)C(F)(F)C(F)(F)F)nc1c7c26)c3c45
emission maximum (in C1CCOC1): 551 nm

Cc1ccc2c(c1)c(C#N)c(C#N)c1cc(C)ccc12
emission maximum (in ClC(Cl)Cl): 396 nm

COc1c2ccccc2c(OC)c2c1c1cc(C)ccc1n2C
emission maximum (in C1CCCCC1): 421 nm
emission maximum (in CC#N): 431 nm
emission maximum (in CO): 426 nm
emission maximum (in ClCCl): 428 nm

c1ccc(N(c2ccccc2)c2ccc(-c3ncc(-c4ccc(-c5cnc(-c6ccc(N(c7ccccc7)c7ccccc7)cc6)s5)s4)s3)cc2)cc1
emission maximum (in CO): 503 nm

N#Cc1c(N2CCCCC2)cc(-c2ccc(O)cc2)c2c1-c1cccc3cccc-2c13
emission maximum (in C1CCCCC1): 527 nm
emission maximum (in C1COCCO1): 540 nm
emission maximum (in CC#N): 569 nm
emission maximum (in CCO): 548 nm
emission maximum (in CN(C)C=O): 573 nm
emission maximum (in CO): 554 nm
emission maximum (in CS(C)=O): 580 nm
emission maximum (in Cc1ccccc1): 530 nm
emission maximum (in ClCCl): 545 nm
emission maximum (in O): 550 nm

CN1CCN(c2cccc(/C=C/c3ncc(-c4ccc(OCc5ccccc5)c(OCc5ccccc5)c4)o3)c2)CC1
emission maximum (in ClCCl): 465 nm

C[Si](C)(C)C#Cc1ccc(C#Cc2cnc(C#Cc3ccccc3)nc2)cc1
emission maximum (in C1CCCCC1): 390 nm

C(=C\c1cnc2ccccc2n1)/c1ccc(N(c2ccccc2)c2ccccc2)cc1
emission maximum (in C1CCOC1): 535 nm
emission maximum (in CC#N): 596 nm
emission maximum (in CCCCCCC): 461 nm
emission maximum (in CS(C)=O): 598 nm
emission maximum (in ClCCl): 565 nm

COC(=O)C1=C(C(=O)OC)C2=C[C@H]3c4ccccc4[C@]2(S1)c1ccccc13
emission maximum (in C1CCOC1): 477 nm
emission maximum (in CC#N): 489 nm
emission maximum (in CCCCCC): 465 nm
emission maximum (in CCOCC): 473 nm
emission maximum (in CO): 500 nm
emission maximum (in ClCCl): 488 nm
emission maximum (in c1ccccc1): 477 nm

Cn1cc(-c2nc3ccccc3nc2/C=C/N2CCCC2)c2ccccc21
emission maximum (in CC#N): 556.97 nm
emission maximum (in CC(C)=O): 465.99 nm
emission maximum (in CCO): 548.05 nm

C=CCN(CC=C)c1ccc(-c2cc(-c3ccc(N(CC=C)CC=C)cc3)cc(-c3ccc(N(CC=C)CC=C)cc3)c2)cc1
emission maximum (in ClCCl): 397.56 nm

CC(C)(C)c1ccc2c(c1)c1cc(C(C)(C)C)ccc1n2-c1ccc(-c2ccc3c(c2)C(=O)c2ccc(-c4ccc(-n5c6ccc(C(C)(C)C)cc6c6cc(C(C)(C)C)ccc65)cc4)cc2C3=O)cc1
emission maximum (in Cc1ccccc1): 558 nm
emission maximum (in c1ccc2c(c1)c1ccccc1n2-c1ccc(-c2ccc(-n3c4ccccc4c4ccccc43)cc2)cc1): 550 nm

CCn1c2ccccc2c2c3nsnc3c3c4ccccc4n(CC)c3c21
emission maximum (in CN(C)C=O): 500 nm
emission maximum (in Cc1ccccc1): 470 nm
emission maximum (in ClCCl): 497 nm

CCCCCCCCCCCCc1sc(CCCCCCCCCCCC)c2c3ccsc3c3sccc3c12
emission maximum (in ClC(Cl)Cl): 425 nm

Cc1cc(C)c(B(c2cc(C#Cc3ccccc3)sc2-c2sc(C#Cc3ccccc3)cc2P(=O)(c2ccccc2)c2ccccc2)c2c(C)cc(C)cc2C)c(C)c1
emission maximum (in CO): 560 nm

CC1(C)c2ccccc2N(c2ccc3c(c2)C2(c4cc(N5c6ccccc6C(C)(C)c6ccccc65)ccc4-3)c3ccccc3S(=O)(=O)c3ccccc32)c2ccccc21
emission maximum (in Cc1ccccc1): 437 nm

COc1cc(N(c2ccccc2)c2ccccc2)ccc1C=C(C#N)C#N
emission maximum (in C1COCCO1): 548 nm
emission maximum (in CC#N): 581 nm
emission maximum (in CC(C)=O): 587 nm
emission maximum (in CCOC(C)=O): 573 nm
emission maximum (in CN(C)C=O): 558 nm
emission maximum (in CO): 562 nm
emission maximum (in Cc1ccccc1): 525 nm
emission maximum (in ClC(Cl)Cl): 567 nm
emission maximum (in ClCCl): 590 nm

COC(=O)c1[nH]c(-c2ccccc2)c2nnc3ccc(OC)cc3c12
emission maximum (in ClCCl): 475 nm

CCN(CC)c1ccc2c(-c3ccccc3C(=O)O)c3c([o+]c2c1)/C(=C/c1ccc(N(C)C)cc1)CCC3
emission maximum (in ClCCl): 757 nm

c1ccc(-c2nc(-c3ccccc3)nc(-c3ccc(-c4ccc5c(c4)[Si](c4ccccc4)(c4ccccc4)c4cc(-c6ccc(-c7nc(-c8ccccc8)nc(-c8ccccc8)n7)cc6)ccc4N5c4ccccc4)cc3)n2)cc1
emission maximum (in c1cc(-c2cccc(-n3c4ccccc4c4ccccc43)c2)cc(-n2c3ccccc3c3ccccc32)c1): 459 nm
